Experimental data: PubChem BioAssay AID256 (DTP/NCI, 2004)
Values joined by “and” are separate entries in the source; they are usually repeats but may differ in a detail not shown here. Identical values can stand only once. Inconclusive results and toxic doses are left out. Rule for the calls: active = survival T/C of 150% or more; inactive = T/C below 125% in these data.

System: CD2F1 mice, L1210 leukemia ip, survival T/C
Experiment: NCI In Vivo Anticancer Drug Screen. Data for tumor model L1210 Leukemia (intraperitoneal) in CD2F1 (CDF1) mice
Details: higher = longer survival
In short: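 Implant tumor; dose compound or vehicle; measure endpoint in both groups; report treated divided by control.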

[1] = endpoint: mean survival time, dose: 100.0 mg/kg/injection, schedule: Q04DX003 (ip), vehicle: saline
[2] = endpoint: mean survival time, dose: 200.0 mg/kg/injection, schedule: Q04DX003 (ip), vehicle: saline
[3] = endpoint: mean survival time, dose: 400.0 mg/kg/injection, schedule: Q04DX003 (ip), vehicle: saline
[4] = endpoint: mean survival time, dose: 100.0 mg/kg/injection, schedule: Q04DX002 (ip), vehicle: saline with Tween-80
[5] = endpoint: mean survival time, dose: 200.0 mg/kg/injection, schedule: Q04DX002 (ip), vehicle: saline with Tween-80
[6] = endpoint: mean survival time, dose: 400.0 mg/kg/injection, schedule: Q04DX002 (ip), vehicle: saline with Tween-80
[7] = endpoint: mean survival time, dose: 75.0 mg/kg/injection, schedule: Q01DX001 (ip), vehicle: saline

Measured: T/C

CCCCCCCCCCNC(=O)C[n+]1cccc(C(=O)N(CC)CC)c1
inactive: endpoint: mean survival time, dose: 6.25 mg/kg/injection, schedule: Q01DX009 (ip), vehicle: saline with Tween-80 91 % of control | endpoint: mean survival time, dose: 12.5 mg/kg/injection, schedule: Q01DX009 (ip), vehicle: saline with Tween-80 97 % of control | endpoint: mean survival time, dose: 25.0 mg/kg/injection, schedule: Q01DX009 (ip), vehicle: saline with Tween-80 91 % of control

COc1ccc(C(=O)/C=C/c2ccc(O)cc2)cc1
inactive: endpoint: mean survival time, dose: 37.5 mg/kg/injection, schedule: Q01DX009 (ip), vehicle: saline 98 % of control | endpoint: mean survival time, dose: 75.0 mg/kg/injection, schedule: Q01DX009 (ip), vehicle: saline 102 % of control | endpoint: mean survival time, dose: 150.0 mg/kg/injection, schedule: Q01DX009 (ip), vehicle: saline 98 % of control

[C-]#[O+].[C-]#[O+].[C-]#[O+].[C-]#[O+].[C-]#[O+].[Cr].c1ccc(O[PH+](Oc2ccccc2)Oc2ccccc2)cc1
inactive: endpoint: mean survival time, dose: 50.0 mg/kg/injection, schedule: Q01DX009 (ip), vehicle: saline with Tween-80 96 % of control | endpoint: mean survival time, dose: 100.0 mg/kg/injection, schedule: Q01DX009 (ip), vehicle: saline with Tween-80 96 % of control | endpoint: mean survival time, dose: 200.0 mg/kg/injection, schedule: Q01DX009 (ip), vehicle: saline with Tween-80 91 % of control

Cc1cccc(-n2cc(C#N)c3c(C)cc(C)nc32)c1
inactive: [1] 106 % of control | [2] 101 % of control | [3] 97 % of control

O=C1C=CC(=CC=C2C=CN(CCCCCCCCCCCO)C=C2)C=C1
inactive: endpoint: median survival time, dose: 1.56 mg/kg/injection, schedule: Q01DX005 (ip), vehicle: saline with Tween-80 96 % of control | endpoint: median survival time, dose: 2.25 mg/kg/injection, schedule: Q01DX005 (ip), vehicle: saline with Tween-80 102 % of control and 105 % of control | endpoint: median survival time, dose: 3.13 mg/kg/injection, schedule: Q01DX005 (ip), vehicle: saline with Tween-80 107 % of control | endpoint: median survival time, dose: 3.75 mg/kg/injection, schedule: Q01DX005 (ip), vehicle: saline with Tween-80 102 % of control and 105 % of control | endpoint: median survival time, dose: 6.25 mg/kg/injection, schedule: Q01DX005 (ip), vehicle: saline with Tween-80 117 % of control and 109 % of control | endpoint: median survival time, dose: 10.4 mg/kg/injection, schedule: Q01DX005 (ip), vehicle: saline with Tween-80 118 % of control | endpoint: median survival time, dose: 10.41 mg/kg/injection, schedule: Q01DX005 (ip), vehicle: saline with Tween-80 118 % of control | endpoint: median survival time, dose: 12.5 mg/kg/injection, schedule: Q01DX005 (ip), vehicle: saline with Tween-80 119 % of control | endpoint: median survival time, dose: 17.35 mg/kg/injection, schedule: Q01DX005 (ip), vehicle: saline with Tween-80 119 % of control | endpoint: median survival time, dose: 17.4 mg/kg/injection, schedule: Q01DX005 (ip), vehicle: saline with Tween-80 121 % of control | endpoint: median survival time, dose: 25.0 mg/kg/injection, schedule: Q01DX005 (ip), vehicle: saline with Tween-80 92 % of control

O=C(O)C(S)C(S)C(=O)O.[As] (stereo not given)
inactive: endpoint: mean survival time, dose: 25.0 mg/kg/injection, schedule: Q04DX003 (ip), vehicle: saline 95 % of control | endpoint: mean survival time, dose: 50.0 mg/kg/injection, schedule: Q01DX001 (ip), vehicle: saline 89 % of control | endpoint: mean survival time, dose: 50.0 mg/kg/injection, schedule: Q04DX003 (ip), vehicle: saline 92 % of control | endpoint: mean survival time, dose: 100.0 mg/kg/injection, schedule: Q01DX001 (ip), vehicle: saline 100 % of control | [1] 100 % of control

[I][Ni][I].c1ccc([PH+](c2ccccc2)c2ccccc2)cc1.c1ccc([PH+](c2ccccc2)c2ccccc2)cc1
inactive: [4] 87 % of control | [5] 91 % of control | [6] 87 % of control

[Cl][Pt+2][Cl].[NH-]C1CCCCC1[NH-] (stereo not given)
inactive: endpoint: mean survival time, dose: 0.39 mg/kg/injection, schedule: Q04DX003 (ip), vehicle: saline with Tween-80 124 % of control | endpoint: mean survival time, dose: 1.56 mg/kg/injection, schedule: Q04DX002 (ip), vehicle: saline 119 % of control and 124 % of control | endpoint: median survival time, dose: 20.0 mg/kg/injection, schedule: Q04DX003 (ip), vehicle: saline 100 % of control

O=C1c2ccccc2C(=O)N1CC(O)COc1ccccc1 (stereo not given)
inactive: endpoint: mean survival time, dose: 100.0 mg/kg/injection, schedule: Q04DX003 (ip), vehicle: saline with Tween-80 94 % of control | endpoint: mean survival time, dose: 200.0 mg/kg/injection, schedule: Q04DX003 (ip), vehicle: saline with Tween-80 101 % of control | endpoint: mean survival time, dose: 400.0 mg/kg/injection, schedule: Q04DX003 (ip), vehicle: saline with Tween-80 103 % of control

CC(=O)Oc1ccc([N+](=O)[O-])cc1[N+](=O)[O-]
inactive: endpoint: mean survival time, dose: 25.0 mg/kg/injection, schedule: Q04DX002 (ip), vehicle: Klucel (hydroxypropylcellulose) (HPC) 93 % of control

O=C1c2ccccc2C(=O)N1CCc1c[nH]c2ccccc12
inactive: endpoint: mean survival time, dose: 100.0 mg/kg/injection, schedule: Q01DX001 (ip), vehicle: saline with Tween-80 102 % of control | endpoint: mean survival time, dose: 200.0 mg/kg/injection, schedule: Q01DX001 (ip), vehicle: saline with Tween-80 104 % of control | endpoint: mean survival time, dose: 400.0 mg/kg/injection, schedule: Q01DX001 (ip), vehicle: saline with Tween-80 104 % of control

NC(=O)N/N=C1\CC(S(=O)(=O)O)NC(=O)N1 (stereo not given)
inactive: endpoint: mean survival time, dose: 50.0 mg/kg/injection, schedule: Q04DX002 (ip), vehicle: saline with Tween-80 98 % of control | [4] 95 % of control | [5] 95 % of control

N[C@@H](C[C@H]1CCC(=O)[C@@H]2O[C@H]12)C(=O)O
inactive: endpoint: mean survival time, dose: 100.0 mg/kg/injection, schedule: Q04DX002 (ip), vehicle: saline 117 % of control and 107 % of control | endpoint: median survival time, dose: 50.0 mg/kg/injection, schedule: Q01DX005 (ip), vehicle: saline 113 % of control and 110 % of control | endpoint: median survival time, dose: 100.0 mg/kg/injection, schedule: Q01DX005 (ip), vehicle: saline 122 % of control and 124 % of control | endpoint: median survival time, dose: 144.0 mg/kg/injection, schedule: Q01DX005 (ip), vehicle: saline 110 % of control | endpoint: median survival time, dose: 172.8 mg/kg/injection, schedule: Q01DX005 (ip), vehicle: saline 119 % of control | endpoint: median survival time, dose: 240.0 mg/kg/injection, schedule: Q01DX005 (ip), vehicle: saline 114 % of control | endpoint: median survival time, dose: 288.0 mg/kg/injection, schedule: Q01DX005 (ip), vehicle: saline 121 % of control
active: endpoint: mean survival time, dose: 400.0 mg/kg/injection, schedule: Q04DX002 (ip), vehicle: saline 167 % of control | endpoint: median survival time, dose: 800.0 mg/kg/injection, schedule: Q01DX005 (ip), vehicle: saline 155 % of control

O=C(Nc1ccccc1[N+](=O)[O-])OCc1ccccc1
inactive: [4] 95 % of control | [5] 91 % of control | [6] 91 % of control

C1CCC2[N-]CC3CCCCC3[N-]CC3CCCCC3[N-]CC3CCCCC3[N-]CC2C1.[Cu] (stereo not given)
inactive: endpoint: mean survival time, dose: 0.39 mg/kg/injection, schedule: Q01DX009 (ip), vehicle: saline 118 % of control | endpoint: mean survival time, dose: 0.78 mg/kg/injection, schedule: Q01DX009 (ip), vehicle: saline 116 % of control | endpoint: mean survival time, dose: 1.56 mg/kg/injection, schedule: Q01DX009 (ip), vehicle: saline 104 % of control | endpoint: mean survival time, dose: 3.12 mg/kg/injection, schedule: Q01DX009 (ip), vehicle: saline 118 % of control | endpoint: mean survival time, dose: 6.25 mg/kg/injection, schedule: Q01DX009 (ip), vehicle: saline 119 % of control

COc1ccc2c(c1)OC(C)(C)C(c1ccccc1)=C2c1ccc(OCCN2CCCC2)cc1
inactive: [7] 98 % of control

Nc1cc(N)c2[nH]cnc2n1
inactive: endpoint: mean survival time, dose: 100.0 mg/kg/injection, schedule: Q01DX001 (ip), vehicle: other 104 % of control | endpoint: mean survival time, dose: 200.0 mg/kg/injection, schedule: Q01DX001 (ip), vehicle: other 97 % of control | endpoint: mean survival time, dose: 400.0 mg/kg/injection, schedule: Q01DX001 (ip), vehicle: other 98 % of control

C#CCNC1=C(C)C(=O)C2=C(C1=O)[C@H](COC(N)=O)[C@]1(O)[C@H]3[C@@H](CN21)N3C (stereo not given in full)
inactive: endpoint: mean survival time, dose: 1.5 mg/kg/injection, schedule: Q01DX001 (ip), vehicle: water 104 % of control | endpoint: mean survival time, dose: 3.0 mg/kg/injection, schedule: Q01DX001 (ip), vehicle: water 102 % of control | endpoint: mean survival time, dose: 6.0 mg/kg/injection, schedule: Q01DX001 (ip), vehicle: water 100 % of control | endpoint: mean survival time, dose: 12.0 mg/kg/injection, schedule: Q01DX001 (ip), vehicle: water 110 % of control | endpoint: mean survival time, dose: 24.0 mg/kg/injection, schedule: Q01DX001 (ip), vehicle: water 110 % of control

CCCN(CCC)CCCOC(=O)c1ccc([N+](=O)[O-])cc1
inactive: [1] 97 % of control | [2] 92 % of control | [3] 94 % of control

CCN(CC)CC(C)(C)C(=O)/C=C/c1ccc(/C=C/C(=O)C(C)(C)CN(CC)CC)cc1
inactive: endpoint: median survival time, dose: 3.75 mg/kg/injection, schedule: Q01DX005 (ip), vehicle: saline 98 % of control | endpoint: median survival time, dose: 7.5 mg/kg/injection, schedule: Q01DX005 (ip), vehicle: saline 107 % of control | endpoint: median survival time, dose: 15.0 mg/kg/injection, schedule: Q01DX005 (ip), vehicle: saline 107 % of control | endpoint: median survival time, dose: 30.0 mg/kg/injection, schedule: Q01DX005 (ip), vehicle: saline 116 % of control

CCCCCCCCCCC(C(=O)OCC)P(=O)(OCC)OCC (stereo not given)
inactive: [7] 98 % of control | endpoint: mean survival time, dose: 150.0 mg/kg/injection, schedule: Q01DX001 (ip), vehicle: saline 102 % of control | endpoint: mean survival time, dose: 300.0 mg/kg/injection, schedule: Q01DX001 (ip), vehicle: saline 96 % of control
